The values below come from patent publication US20240199605A1, “SMALL MOLECULAR INHIBITORS OF NF-kB INDUCING KINASE” (Janssen Pharmaceutica NV, priority 2019, published 2024).

Assay [1] deals with recombinant human NF-kappaB-inducing kinase (NIK/MAP3K14) (Homo sapiens (Human), UniProt Q99558). As to the kind of experiment: Inhibition of auto-phosphorylation of recombinant human NIK/MAP3K14 (AlphaScreen). The class given is biochemical. As to conditions: NIK auto-phosphorylation, 5 μM ATP, 1 nM NIK, 2 h at 25° C.; average of values. In short, it runs like this: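 AlphaScreen read-out (anti-phospho-IKK Ser176/180 antibody, Protein A acceptor and glutathione donor beads) of NIK auto-phosphorylation. Reaction: 1 nM enzyme, 5 μM ATP, Tris pH 7.5 buffer with Mg2+ and vanadate, 2 h at 25° C., final DMSO 0.7%. IC50 came from a sigmoidal curve fit.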
(In Alpha technology, singlet oxygen from a donor bead excites a nearby acceptor bead.)

Assay [2] deals with p-IKKα levels in L363 (NIK translocated multiple myeloma) cells. Put plainly: Effect of compounds on p-IKKα levels in L363 cells (AlphaLISA SureFire Ultra). Conditions: Homo sapiens, L-363, 6 h, BAFF stimulated, MG132, 6 h, average of values, read-out: Assay 2 IC50. Type of assay: cell-based, human. In short, it runs like this:
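Inhibition of p-IKKα (Ser176/180) read by AlphaLISA after 6 h, 37 °C compound exposure (11-point 1:3 series, 0.3% DMSO) of L363 cells pre-incubated overnight ± 250 ng/ml BAFF and plated ± BAFF ± 10 μM MG132. Normalised to BAFF/MG132/DMSO and unstimulated controls; IC50 by sigmoidal fitting, duplicates.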

Chain of recombinant human NF-kappaB-inducing kinase (NIK/MAP3K14) (Q99558 whole entry): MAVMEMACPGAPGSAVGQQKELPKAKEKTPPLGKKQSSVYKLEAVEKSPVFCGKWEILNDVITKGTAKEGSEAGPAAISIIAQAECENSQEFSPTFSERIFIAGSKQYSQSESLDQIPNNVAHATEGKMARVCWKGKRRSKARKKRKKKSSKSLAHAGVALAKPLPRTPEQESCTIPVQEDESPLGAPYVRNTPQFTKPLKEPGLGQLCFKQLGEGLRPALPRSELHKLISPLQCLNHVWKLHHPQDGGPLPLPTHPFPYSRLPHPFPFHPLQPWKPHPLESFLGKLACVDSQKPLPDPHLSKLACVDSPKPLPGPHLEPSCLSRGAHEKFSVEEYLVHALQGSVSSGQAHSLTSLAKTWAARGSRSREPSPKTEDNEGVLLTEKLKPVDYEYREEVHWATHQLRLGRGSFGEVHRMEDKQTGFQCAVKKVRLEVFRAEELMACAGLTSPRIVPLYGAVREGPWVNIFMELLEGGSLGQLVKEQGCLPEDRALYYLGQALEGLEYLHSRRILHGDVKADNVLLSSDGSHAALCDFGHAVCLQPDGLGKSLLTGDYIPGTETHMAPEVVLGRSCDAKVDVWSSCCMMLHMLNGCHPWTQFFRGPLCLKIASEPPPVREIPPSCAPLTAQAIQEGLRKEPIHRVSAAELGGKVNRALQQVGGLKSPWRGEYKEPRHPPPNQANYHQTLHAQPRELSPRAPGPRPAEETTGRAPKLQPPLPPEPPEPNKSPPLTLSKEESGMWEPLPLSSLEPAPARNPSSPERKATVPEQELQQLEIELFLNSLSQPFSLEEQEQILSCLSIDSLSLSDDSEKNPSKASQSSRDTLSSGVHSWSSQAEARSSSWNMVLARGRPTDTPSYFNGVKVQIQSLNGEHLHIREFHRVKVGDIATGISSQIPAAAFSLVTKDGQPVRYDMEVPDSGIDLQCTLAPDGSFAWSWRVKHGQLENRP

Regarding `CN1CC[C@@](O)(C#Cc2cccc(-c3ncc4cc[nH]c(=O)c4n3)c2)C1=O` [Example 30, (R)-2-[3-[2-(3-Hydroxy-1-methyl-2-oxo-pyrrolidin-3-yl)ethynyl]phenyl]-7H-pyrido[3,4-d]pyrimidin-8-one], the IC50 came out at 60 nM in assay [1] and 1190 nM in assay [2].

Regarding `CN1CC[C@](O)(C#Cc2cccc(-c3ncc4cc[nH]c(=O)c4n3)c2)C1=O` [Example 31, (S)-2-[3-[2-(3-Hydroxy-1-methyl-2-oxo-pyrrolidin-3-yl)ethynyl]phenyl]-7H-pyrido[3,4-d]pyrimidin-8-one], the IC50 came to 23 nM in assay [1] and 550 nM in assay [2].

Regarding `C[C@@](O)(C#Cc1cccc(-c2ncc3ccnc(N)c3n2)c1)c1nccs1` [Example 32, (R)-4-[3-(8-Aminopyrido[3,4-d]pyrimidin-2-yl)phenyl]-2-thiazol-2-yl-but-3-yn-2-ol], the IC50 in assay [1] is at most 0.5 nM; in assay [2], 12 nM.

Regarding `Nc1nccc2cnc(-c3cccc(C#CC4(O)CCCC4)c3)nc12` [Example 33, 1-[2-[3-(8-Aminopyrido[3,4-d]pyrimidin-2-yl)phenyl]ethynyl]cyclopentanol], the IC50 turned out to be 4.5 nM in assay [1] and 620 nM in assay [2].

For `Cc1cc([C@](C)(O)C#Cc2cccc(-c3ncc4ccnc(N)c4n3)c2)no1` [Example 34, (R)-4-[3-(8-Aminopyrido[3,4-d]pyrimidin-2-yl)phenyl]-2-(5-methylisoxazol-3-yl)but-3-yn-2-ol], the IC50 in assay [1] is at most 0.5 nM; in assay [2], 52 nM.

As for `CC(C)(O)C#Cc1cccc(-c2ncc3ccnc(N)c3n2)c1` [Example 35, 4-[3-(8-Aminopyrido[3,4-d]pyrimidin-2-yl)phenyl]-2-methyl-but-3-yn-2-ol], the 50% inhibitory concentration (IC50) in assay [1] was 15 nM; in assay [2], 700 nM.

As for `CN1CC[C@@](O)(C#Cc2cccc(-c3ccc4ccnc(N)c4c3)c2)C1=O` [Example 36, (R)-3-[2-[3-(1-Amino-7-isoquinolyl)phenyl]ethynyl]-3-hydroxy-1-methyl-pyrrolidin-2-one], the concentration for half-maximal inhibition (IC50) in assay [1] came to 1.9 nM; in assay [2] it was 200 nM.

`Cc1nc(-c2cccc(C#C[C@]3(O)CCN(C)C3=O)c2)nc2c(N)nccc12` [Example 37, (R)-3-((3-(8-Amino-4-methylpyrido[3,4-d]pyrimidin-2-yl)phenyl)ethynyl)-3-hydroxy-1-methylpyrrolidin-2-one]: the IC50 in assay [1] is 0.6 nM; in assay [2], 35 nM.

As for `CN1CC[C@@](O)(C#Cc2cccc(-c3nc(C(F)(F)F)c4ccnc(N)c4n3)c2)C1=O` [Example 38, (R)-3-((3-(8-Amino-4-(trifluoromethyl)pyrido[3,4-d]pyrimidin-2-yl)phenyl)ethynyl)-3-hydroxy-1-methylpyrrolidin-2-one], the values for the IC50 in assay [1] and in assay [2] were 0.7 nM and 40 nM, respectively.

Turning to `Cc1cnc(N)c2nc(-c3cccc(C#C[C@]4(O)CCN(C)C4=O)c3)ncc12` [Example 39, (R)-3-((3-(8-Amino-5-methylpyrido[3,4-d]pyrimidin-2-yl)phenyl)ethynyl)-3-hydroxy-1-methylpyrrolidin-2-one], the IC50 is at most 0.5 nM in assay [1] and 9 nM in assay [2].

`Cc1ccc(-c2ncc3ccnc(N)c3n2)cc1C#C[C@]1(O)CCN(C)C1=O` [Example 40, (R)-3-((5-(8-Aminopyrido[3,4-d]pyrimidin-2-yl)-2-methylphenyl)ethynyl)-3-hydroxy-1-methylpyrrolidin-2-one]: the IC50 stood at 0.7 nM in assay [1] and 210 nM in assay [2].

As to `Cc1c(C#C[C@]2(O)CCN(C)C2=O)cccc1-c1ncc2ccnc(N)c2n1` [Example 41, (R)-3-((3-(8-Aminopyrido[3,4-d]pyrimidin-2-yl)-2-methylphenyl)ethynyl)-3-hydroxy-1-methylpyrrolidin-2-one], the IC50 in assay [1] was 68 nM; in assay [2], over 5000 nM.

For the compound `Cc1cc(C#C[C@]2(O)CCN(C)C2=O)cc(-c2ncc3ccnc(N)c3n2)c1` [Example 42, (R)-3-((3-(8-Aminopyrido[3,4-d]pyrimidin-2-yl)-5-methylphenyl)ethynyl)-3-hydroxy-1-methylpyrrolidin-2-one], the IC50 in assay [1] is 1.3 nM; in assay [2] it was 29 nM.

In the case of `Cc1ccc(C#C[C@]2(O)CCN(C)C2=O)cc1-c1ncc2ccnc(N)c2n1` [Example 43, (R)-3-((3-(8-Aminopyrido[3,4-d]pyrimidin-2-yl)-4-methylphenyl)ethynyl)-3-hydroxy-1-methylpyrrolidin-2-one], the IC50 in assay [1] turned out to be 0.9 nM; in assay [2] it was 60 nM.

Take `Nc1nccc2cnc(-c3cccc(C#C[C@]4(O)CCc5cccnc54)c3)nc12` [Example 45, (R)-7-[2-[3-(8-Aminopyrido[3,4-d]pyrimidin-2-yl)phenyl]ethynyl]-5,6-dihydrocyclopenta[b]pyridin-7-ol]: the values for the IC50 in assay [1] and in assay [2] were at most 0.5 nM and 17 nM, respectively.

As to `Cc1nc(-c2cccc(C#C[C@@](C)(O)c3nccs3)c2)nc2c(N)nccc12` [Example 48, (R)-4-(3-(8-Amino-4-methylpyrido[3,4-d]pyrimidin-2-yl)phenyl)-2-(thiazol-2-yl)but-3-yn-2-ol], the values for the half-inhibitory concentration (IC50) in assay [1] and in assay [2] were at most 0.5 nM and 16 nM, respectively.

For `C[C@@](O)(C#Cc1cccc(-c2nc(C(F)(F)F)c3ccnc(N)c3n2)c1)c1nccs1` [Example 49, (R)-4-(3-(8-Amino-4-(trifluoromethyl)pyrido[3,4-d]pyrimidin-2-yl)phenyl)-2-(thiazol-2-yl)but-3-yn-2-ol], the IC50 turned out to be 2.5 nM in assay [1] and 130 nM in assay [2].

In the case of `Cc1cnc(N)c2nc(-c3cccc(C#C[C@@](C)(O)c4nccs4)c3)ncc12` [Example 50, (R)-4-(3-(8-Amino-5-methylpyrido[3,4-d]pyrimidin-2-yl)phenyl)-2-(thiazol-2-yl)but-3-yn-2-ol], the IC50 was at most 0.5 nM in assay [1] and 17 nM in assay [2].

For `Cc1cc2cnc(-c3cccc(C#C[C@@](C)(O)c4nccs4)c3)nc2c(N)n1` [Example 51, (R)-4-(3-(8-Amino-6-methylpyrido[3,4-d]pyrimidin-2-yl)phenyl)-2-(thiazol-2-yl)but-3-yn-2-ol], the IC50 in assay [1] is 1 nM; in assay [2] it was 480 nM.

As for `Cc1cc(C#C[C@]2(O)CCc3cccnc32)cc(-c2ncc3ccnc(N)c3n2)c1` [Example 52, (R)-7-[2-[3-(8-Aminopyrido[3,4-d]pyrimidin-2-yl)-5-methyl-phenyl]ethynyl]-5,6-dihydrocyclopenta[b]pyridin-7-ol], the IC50 came out at 2.5 nM in assay [1] and 110 nM in assay [2].

As to `COc1ccc(C#C[C@]2(O)CCN(C)C2=O)cc1-c1ncc2ccnc(N)c2n1` [Example 53, (R)-3-((3-(8-Aminopyrido[3,4-d]pyrimidin-2-yl)-4-methoxyphenyl)ethynyl)-3-hydroxy-1-methylpyrrolidin-2-one], the half-inhibitory concentration (IC50) in assay [1] turned out to be 2 nM; in assay [2], 49 nM.

Take `CC(C)Cc1ccc(C#C[C@]2(O)CCN(C)C2=O)cc1-c1ncc2ccnc(N)c2n1` [Example 54, (R)-3-((3-(8-Aminopyrido[3,4-d]pyrimidin-2-yl)-4-isobutylphenyl)ethynyl)-3-hydroxy-1-methylpyrrolidin-2-one]: the results for the IC50 in assay [1] and in assay [2] were 10 nM and 280 nM, respectively.

Consider `CN1CC[C@@](O)(C#Cc2cccc(-c3nc4c(N)nccc4c(=O)[nH]3)c2)C1=O` [Example 55, (R)-8-Amino-2-(3-((3-hydroxy-1-methyl-2-oxopyrrolidin-3-yl)ethynyl)phenyl)pyrido[3,4-d]pyrimidin-4(3H)-one], for which the concentration for half-maximal inhibition (IC50) was at most 0.5 nM in assay [1] and 29 nM in assay [2].

With `CN1CC[C@@](O)(C#Cc2ccc(OC(F)(F)F)c(-c3ncc4ccnc(N)c4n3)c2)C1=O` [Example 56, (R)-3-((3-(8-Aminopyrido[3,4-d]pyrimidin-2-yl)-4-(trifluoromethoxy)phenyl)ethynyl)-3-hydroxy-1-methylpyrrolidin-2-one], the IC50 turned out to be 2 nM in assay [1] and 36 nM in assay [2].

With `CN1CC[C@@](O)(C#Cc2cccc(-c3nc(N4CCOCC4)c4ccnc(N)c4n3)c2)C1=O` [Example 57, (R)-3-((3-(8-Amino-4-morpholinopyrido[3,4-d]pyrimidin-2-yl)phenyl)ethynyl)-3-hydroxy-1-methylpyrrolidin-2-one], the IC50 amounted to 1.3 nM in assay [1] and 35 nM in assay [2].

For `CN1CC[C@@](O)(C#Cc2cccc(-c3nc(N(C)C)c4ccnc(N)c4n3)c2)C1=O` [Example 58, (R)-3-((3-(8-Amino-4-(dimethylamino)pyrido[3,4-d]pyrimidin-2-yl)phenyl)ethynyl)-3-hydroxy-1-methylpyrrolidin-2-one], the IC50 was found to be 0.7 nM in assay [1] and 15 nM in assay [2].

`Cc1nc(-c2cccc(C#C[C@]3(O)CCc4cccnc43)c2)nc2c(N)nccc12` [Example 60, (R)-7-((3-(8-Amino-4-methylpyrido[3,4-d]pyrimidin-2-yl)phenyl)ethynyl)-6,7-dihydro-5H-cyclopenta[b]pyridin-7-ol]: the IC50 in assay [1] stood at 0.8 nM; in assay [2] it was 27 nM.

In the case of `Nc1nccc2c(C(F)(F)F)nc(-c3cccc(C#C[C@]4(O)CCc5cccnc54)c3)nc12` [Example 61, (R)-7-((3-(8-Amino-4-(trifluoromethyl)pyrido[3,4-d]pyrimidin-2-yl)phenyl)ethynyl)-6,7-dihydro-5H-cyclopenta[b]pyridin-7-ol], the IC50 came to 4 nM in assay [1] and 170 nM in assay [2].

Broadly, the IC50 is the concentration that gives 50% inhibition.
